In patent publication US20100168033A1, “UNACYLATED GHRELIN AS THERAPEUTIC AGENT IN THE TREATMENT OF METABOLIC DISORDERS” (ALIZE PHARMA SAS, priority 2007, published 2010):
Like-named read-outs stand apart in the source and are kept apart here. Non-standard residues stand in square brackets, D forms with d. No end group written: not given here.

Legend:
[1] = system: HIT-T15 β-cells; assay type: cell-based; conditions: for increase of cell survival: serum-free conditions
Procedure: MTT experiments were also performed in hamster HIT-T15 β-cells, to test the survival effect of UAG (1-28) or its fragments UAG (1-14), UAG (1-18), UAG (1-5) and UAG (17-28) in serum deprived medium, either alone or with IFN-γ/TNF-α/IL-1β. As for the experiments performed on INS-1E β-cells, the peptides were tested at increasing concentrations, ranging from 0.1 nM to 100 nM.
The survival effect of UAG (6-13), UAG (8-13), UAG (8-12), UAG (8-11), UAG (9-12) and UAG (9-11) was assessed in cytokine-treated HIT-T15 β-cells.
The protective effects of peptides UAG (8-13) and UAG (8-12) were found similar to those of UAG (1-14) and UAG (1-18) A peptide made of the inverse sequence of UAG (1-14) and named UAG (14-1), was used as negative control for these experiments (FIG. 5A). […] These effects were however lower than those of UAG (6-13) (FIG. 5B).
UAG fragments with alanine (Ala) substitutions at different amino acid positions (6 to 13) were tested with regards to their survival effects in HIT-T15 hamster β-cells. The cells were cultured in serum deprived medium, either alone or with IFN-γ/TNF-α/IL-1β. The peptides were tested at the concentrations of 1 nM to 100 nM. […] Under treatment with cytokines, where cell survival was reduced by ≈18% with respect to serum starved conditions, all Ala substitutions, except those at positions 10 and 11, completely reversed cell death and brought the survival rate to levels that were even higher than those under serum-free conditions, at both 1 nM and 100 nM concentrations. These effects, were similar to those elicited by the original peptide UAG (6-13) (FIG. 11B).
Particularly, the best effect was exerted by Gly 6-UAG (6-13), whereas the lowest was seen using AcSer 6-UAG (6-13), AcSer 6-(D)Pro 7-UAG (6-13) (FIG. 12B).
(§1) Cell culture—Hamster HIT-T15 insulin-secreting β-cells were obtained and cultured as described (Refs. 14, 4). INS-1E rat β-cells were kindly provided by Prof. Claes B. Wollheim (University Medical Center, Geneva, Switzerland) and cultured as described (Refs. 14, 4). Cell culture reagents were from Invitrogen (Milano, Italy). Cytokines were from Biosource (Invitrogen, Italy).
(§2) Cell survival assay—Cell survival was assessed by 3-[4,5-dimethylthiazol-2-yl]-2,5 diphenyltetrazolium bromide (MTT) as described previously (Ref. 4). Cells were seeded on 96-well plates at a density of 5×10^3 cells/well. After treatments, cells were incubated with 1 mg/ml MTT for ≈1 h. The medium was aspirated, and the formazan product solubilized with 100 μl DMSO. Viability was assessed by spectrophotometry at 570 nm absorbance using a 96-well plate reader.

[2] = system: HIT-T15 β-cells; assay: Apoptosis in cytokine-treated HIT-T15 β-cells; assay type: cell-based, hamster; conditions: for cytokine-induced apoptosis: 24 h serum-free medium with IFN-γ/TNF-α/IL-1β, peptides 1, 10, 100 nM
Procedure: HIT-T15 β-cells were cultured for 24 h in serum-free medium, either alone or with IFN-γ/TNF-α/IL-1β. In both cell lines, apoptosis increased under cytokine treatment, with respect to serum starvation alone. […] UAG (14-1), the inverse sequence of UAG (1-14), was used as negative control, whereas UAG (1-28), was used as positive control in each experiment.

[3] = system: INS-1E β-cells; assay: MTT cell survival assay in INS-1E β-cells; assay type: cell-based, rat; conditions: peptides 0.1 nM to 100 nM
Procedure: The peptides were tested at increasing concentrations, ranging from 0.1 nM to 100 nM.
as §1, §2

[4] = system: human pancreatic islets; assay: MTT cell survival assay in human pancreatic islets; assay type: cell-based; conditions: 1 nM to 100 nM
Procedure: The survival effect of UAG (1-14), UAG (1-18), UAG (1-5) and UAG (17-28), with respect to that of full length UAG (1-28), was assessed in human pancreatic islets by MTT. The peptides were tested in islet cells cultured in serum deprived medium, either alone or with IFN-γ/TNF-α/IL-1β (5 ng/ml each).
Human islet isolation—Human islets were obtained from pancreases of multiorgan donors as described (Ref. 4). Islet preparations with purity >70%, not suitable for transplantation, were provided by European Consortium for Islet Transplantation (ECIT) “Islets for Research Distribution Program,” Transplant Unit, Scientific Institute San Raffaele, Vita-Salute University, Milan. Islets (10,000) were cultured in CMRL (Invitrogen) with 10% FBS.
as §2

[5] = system: human pancreatic islets; assay: Insulin secretion in human pancreatic islets; assay type: cell-based; conditions: peptide 100 nM; glucose absent or 2 to 25 mM
Procedure: The effects of UAG (1-14) and UAG (1-18), both used at 100 nM, were investigated on insulin secretion in human islets. […] UAG (1-28) and Exendin-4 were used as positive controls (FIGS. 8C and 8D).

[6] = system: UAG receptor on INS-1E pancreatic β-cells; assay: [125I-Tyr4]-UAG competition binding, INS-1E membranes; set-up: species or system rat; conditions: for binding to the UAG receptor: INS-1E cells
Procedure: (§3) The ability of the fragment UAG (6-13) to compete in a concentration-dependent manner with [^125I-Tyr^4]-UAG for HIT-T15 (FIG. 10A) and INS-1E (FIG. 10B) binding sites was assayed. As shown in FIGS. 10A and 10B, unlabelled UAG (1-28) and UAG (6-13) competed with a similar efficacy and in a concentration-dependent fashion with [^125I-Tyr^4]-UAG for such binding sites in both cell lines.
(§4) Binding assay—Membranes from hamster HIT-T15 and rat INS-1E to pancreatic β-cells were prepared and assayed for the presence of [^125I-Tyr^4]-UAG binding. The ability of UAG fragments to compete with the radioligand for such binding sites has been evaluated as previously described (Ref. 4). Data are presented as mean±S.E.M. of three independent experiments.

[7] = system: UAG receptor on HIT-T15 pancreatic β-cells; assay: [125I-Tyr4]-UAG competition binding, HIT-T15 membranes; set-up: species or system hamster; conditions: for binding to the UAG receptor: HIT-T15 cells
Procedure: as §3, §4

[8] = system: ob/ob mice; assay: ob/ob mice, 4-week intraperitoneal pump infusion; assay type: in vivo, mouse
Procedure: Baseline tail vein plasma samples were collected from free-fed and 16 h fasted ob/ob mice 7 and 6 days before pump implantation into K2EDTA coated capillary tubes (Microvette CB300 K2E; Sarstedt, Germany). The animals were then separated into three groups with approximately equivalent weight ranges. Ten week old mice were anesthetized, and a filled Alzet 1004 pump was inserted, delivery portal first, into the peritoneal cavity. The musculoperitoneal and skin layers were then closed using interrupted sutures (Vicryl 5.0 FS-2 absorbable suture). Animals received pumps containing either saline, 10 mg/ml UAG, or 3.5 mg/mL UAG (6-13) (n=8 per group). Alzet 1004 pumps deliver […], and infused 30 μg of hUAG/animal/day (˜600 μg/kg/day) and 10 μg of UAG (6-13)/animal/day (˜200 μg/kg/day).
Blood samples (at 0900-1000) were obtained from fed and fasted animals at weeks 2 and 4 via the tail vein into EDTA Microvette tubes. Glucose levels in tail vein blood were measured directly using a glucometer. On the last day of treatment baseline (fasted) blood samples were taken.
For the experimental data illustrated in FIGS. 14A, 14B, 15 and 16, the animals were obtained from Charles River Laboratories (Maastricht, The Netherlands). Animals (B6.V-Lep^ob/J, Charles River Laboratories, Belgian colony) were received in our animal facilities at 8 weeks of age, and acclimatized in individual cages for 2 weeks before treatments began. They were maintained under standard 12:12 h light:dark conditions, 21° C., and were allowed free access to food and water. The animals were also handled daily to accustom them to the method used for blood collection. The peptides were dissolved in sterile, nonpyrogenic, 0.9% saline (Baxter BV, Utrecht, The Netherlands). D-glucose was obtained from Sigma-Aldrich Chemie BV (Zwijndrecht, The Netherlands), and was dissolved at 400 mg/ml in 0.9% saline. Alzet pumps (model 1004) were obtained from Charles River Laboratories (Maastricht, The Netherlands). Pumps were filled with 0.9% saline, UAG or UAG (6-13) solution under sterile conditions, and pre-incubated in 0.9% saline for at least 48 hours at 37° C. to initiate flow. Blood glucose levels were measured directly from tail vein incisions using a Freestyle mini glucometer and test strips (ART05214 Rev.A; Abbot, Amersfoort, The Netherlands). Plasma insulin levels were assayed by Ultra-sensitive mouse insulin ELISA (Cat. #10-1150-10; Mercodia, Sweden).

[9] = system: Streptozotocin (STZ)-treated animals; assay: Streptozotocin (STZ)-treated neonatal rats, diabetes model; assay type: in vivo, rat; conditions: for animal survival rate: day 9 after STZ
From the text: Natural birth occurred 6-7 days later. […] Pups were left with their mothers.
Pancreas removal and treatment—After excision, pancreases were removed and weighed.

[10] = serum deprived medium with IFN-γ/TNF-α/IL-1β
[11] = serum deprived medium with IFN-γ/TNF-α/IL-1β (5 ng/ml each)

Substance: Ac-Ser-Pro-Glu-His-Gln-Arg-Val-Gln-NH2 (Ac-SPEHQRVQ-NH2; listed as Homo sapiens) [AcSer 6-UAG (6-13)]
- cell survival (MTT) [1, 10]: lowest

Substance: Ac-Ser-pro-Glu-His-Gln-Arg-Val-Gln-NH2 (Ac-S[dP]EHQRVQ-NH2; listed as Homo sapiens) [AcSer 6-(D)Pro 7-UAG (6-13)]
- cell survival (MTT) [1, 10]: lowest

Substance: EHQRVQ [UAG (8-13)]
- cytokine-induced apoptosis [2]: significantly inhibited apoptosis at 10 and 100 nM

Substance: ESKKPPAKLQPR [UAG (17-28)]
- cell survival (MTT) ([1]; serum deprived medium alone): no significant effect
- cell survival (MTT) [1, 10]: no significant effect
- cell survival (MTT) [3, 10]: reduced effect
- cell survival (MTT) ([3]; serum-free medium): reduced, although significant, survival action
- cell survival (MTT) ([4]; serum deprived medium alone): significantly increased survival of islet cells
- cell survival (MTT) [4, 11]: had no effect

Substance: GSSFLSPEHQRVQQRKES [UAG (1-18)]
- cell survival (MTT) ([1]; serum deprived medium alone): significantly increased cell viability
- cell survival (MTT) [1, 10]: significantly increased cell viability
- cell survival (MTT) [3, 10]: more potent than full length UAG (1-28)
- cell survival (MTT) ([3]; serum-free medium): significant survival effect, comparable to that of UAG (1-28)
- insulin secretion [5]: significant effect with 7.5 mM glucose
- cell survival (MTT) ([4]; serum deprived medium alone): significantly increased cell survival at 1 nM and 10 nM

Substance: Glu-His-Gln-Arg (EHQR; listed as Homo sapiens) [UAG (8-11)]
- cell survival (MTT) [1, 10]: significant survival effect only at 100 nM

Substance: Glu-His-Gln-Arg-Val (EHQRV; printed: Glu-His-Gln-Arg-Val) [UAG (8-12)]
- cytokine-induced apoptosis [2]: some protective effect only at 100 nM

Substance: Gly-Pro-Glu-His-Gln-Arg-Val-Gln-NH2 (GPEHQRVQ-NH2; listed as Homo sapiens) [Gly 6-UAG (6-13)]
- cell survival (MTT) [1, 10]: best effect

Substance: Gly-Ser-Ser-Phe-Leu (GSSFL; listed as Homo sapiens) [UAG (1-5)]
- cell survival (MTT) [1, 10]: slightly increased cell survival
- cell survival (MTT) [3, 10]: reduced effect
- cell survival (MTT) ([3]; serum-free medium): reduced, although significant, survival action
- cell survival (MTT) ([4]; serum deprived medium alone): little, although significant survival action at 10 nM
- cell survival (MTT) [4, 11]: no cell protection

Substance: His-Gln-Arg [UAG (9-11)]
- cell survival (MTT) [1, 10]: no significant effect at both concentrations tested

Substance: His-Gln-Arg-Val (HQRV; listed as Homo sapiens) [UAG (9-12)]
- cell survival (MTT) [1, 10]: significantly increased cell survival at both the concentrations tested

Substance: SPEHQRVQ [UAG (6-13), Ser-Pro-Glu-His-Gln-Arg-val-Gln]
- binding to the UAG receptor [6]: highest binding activity
- IC50 ([6]; INS-1E membranes, mean±S.E.M. of three experiments): 2.4 ± 0.3 nM
- binding to the UAG receptor [7]: highest binding activity
- IC50 ([7]; HIT-T15 membranes, mean±S.E.M. of three experiments): 3.8 ± 0.3 nM
- increase of cell survival ([1]; peptide 1 nM): ≈ 18%
- increase of cell survival ([1]; peptide 100 nM): ≈ 30%
- suppressive effect on plasma glucose levels in fed animals ([8]; fed animals, relative to saline controls): 30-40%
- fed plasma glucose levels ([8]; fed animals, relative to saline controls, not statistically significant (RM-ANOVA)): consistent suppressive effect
- gonadal fat weight ([8]; over the period of treatment): did not cause an increase in gonadal fat weight
- decrease of gonadal fat pad weight relative to saline treated controls ([8]; period of treatment, trend p<0.06): approximately 7%
- cytokine-induced apoptosis [2]: significantly reduced cytokine-induced apoptosis
- cell number and morphology ([2]; with respect to cytokine condition, data not shown): increased the number of cells, induced cell enlargement and small islets formation
- animal survival rate ([9]; 30 nmol/l): ≈ 71%
- animal survival rate ([9]; 100 nmol/l): 89%
- reduction of plasma glucose vs. STZ group ([9]; day 70, 30 nmol/l): 31%
- reduction of plasma glucose vs. STZ group ([9]; day 70, 100 nmol/l): 14%
- plasma insulin levels ([9]; day 70, STZ-treated rats, UAG (6-13) at both concentrations): increasing insulin levels

Substance: UAG (1-13): UAG fragment named only in b93 as binding to the UAG receptor; no sequence listed (GSSFLSPEHQRVQ)
- binding to the UAG receptor [6]: recognized and bound to the UAG receptor
- binding to the UAG receptor [7]: recognized and bound to the UAG receptor
